Laboratory results reported in US20090117170A1, “SEGMENTED DEVICE FOR THE DELAYED RELEASE OF MOLECULES IN A TANGENTIAL DIRECTION THROUGH THIN FILMS AND USES THEREOF” (CAPSULUTION NANOSCIENCE AG, priority 2004, published 2009).

Experiments:
[1] = ibuprofen release from segmented glass release apparatus in phosphate saline buffer; assay type: physicochemical; conditions: 10 intersegment films, 37° C., phosphate saline buffer pH 7.4 with sodium azide
Experimental: A release apparatus was produced from glass discs 3 to 11 (soda-lime glass, edge lengths 26.0×26.0 mm, disc thickness of 1.0 mm) having a surface roughness of 0.172-1.39 Ra (see FIGS. 7A and 7B). The release apparatus consisted of 9 discs (26.0×26.0 mm) having a core drilling 13 (diameter=8 mm) and was closed off on both sides by two discs without a core drilling. Separate intersegment films were not used. A reservoir volume of theoretically 452.4 μl results in the case of 9 discs having a core drilling and a disc thickness of 1.0 mm. The release apparatus was filled with a model substance before closing (100 mg of crystalline ibuprofen) and the remaining reservoir volume was subsequently filled with release medium. Following this, the release behavior of the model substance was investigated at 37° C. in phosphate saline buffer pH 7.4 with addition of sodium azide. FIGS. 7C and 7D show the ibuprofen release from the segmented glass apparatus having 10 intersegment films in phosphate saline buffer pH 7.4 with addition of sodium azide. […] A release apparatus consisting of glass discs (soda-lime glass, edge lengths 26.0×26.0 mm, disc thickness of 1.0 mm) having a surface roughness of 0.172-1.39 Ra was produced (see FIGS. 7A and 7B), the discs being modified by a separating film covering only the outer edges of the discs such that an intersegment film thickness (hollow space) of about 50 μm was present. The release apparatus consisted of 9 discs 3 to 11 (26.0×26.0 mm) having a core drilling 13 (diameter=8 mm) and was closed off on both sides by two discs without a core drilling. Before closing, the release apparatus was filled with a model substance (100 mg of crystalline ibuprofen) and the remaining reservoir volume was subsequently filled with release medium. Following this, the release behavior of the model substance was investigated at 37° C. in phosphate saline buffer pH 7.4 with addition of sodium azide. […]

[2] = enalaprilate release from segmented silicon disc release apparatus; assay type: physicochemical
Description: A release apparatus was produced from round silicon discs (outer diameter 14.0 mm, thickness 0.525 mm) having a very low surface roughness. The release apparatus consisted of 15 discs having a core drilling (diameter=8 mm), a silicon disc without a core drilling as a cover plate and a base plate having closable openings for filling. A silicon disc having a core drilling was glued onto the base plate of titanium. The release apparatus was assembled underwater and fixed by means of a holder. Subsequently, the reservoir was emptied through the reclosable openings in the base plate before the release apparatus was filled with an enalaprilate suspension.
As in Example 3, a release apparatus was produced from round silicon discs (outer diameter 14.0 mm, thickness 0.525 mm), the silicon discs being coated with polyelectrolyte multilayers. Before the assembly of the release apparatus, the silicon discs were coated with a 16 PAH/PSS layer.
As in Example 4, a release apparatus was produced from round coated silicon discs (outer diameter 14.0 mm, thickness 0.525 mm), 25 discs having a core drilling being used.

release rate of the model substance (constant release behavior) ([1]; Example 1: glass apparatus, no separate films, 100 mg crystalline ibuprofen)	duration of constant release behavior ([1]; Example 1: glass apparatus, no separate films)	release rate of the model substance ([1]; Example 2: glass apparatus, modified film thickness (hollow space) about 50 μm, 100 mg crystalline ibuprofen, for 10 to 100 days)	release rate ([2]; Example 3: uncoated silicon discs, 15 intersegment films, enalaprilate suspension)	release rate ([2]; Example 4: silicon discs coated with 16 PAH/PSS layer, 15 modified intersegment films)	release rate ([2]; Example 5: coated silicon discs, 25 modified intersegment films)	SMILES
about 65 μg/d	more than 100 days	about 0.6 mg/d	–	–	–	CC(C)Cc1ccc(C(C)C(=O)O)cc1 (stereo not drawn) [ibuprofen]
–	–	–	about 150 μg per day	about 75 μg per day	about 140 μg per day	C[C@H](N[C@@H](CCc1ccccc1)C(=O)O)C(=O)N1CCC[C@H]1C(=O)O [enalaprilate]
